Laboratory results reported in patent US6586434B2, “Method for the preparation of tetrahydrobenzothiepines” (G.D. Searle, LLC, priority 2000, dated 2003).
Each block holds one compound with its values, some of them ahead of it.

Assay: Water uptake experiments (Dynamic Vapor Sorption, water sorption/desorption isotherms)
Format: physicochemical
Conditions: for Desorptoin % Weight Change: reverse stepwise RH decrease; for Sorption % Weight Change: stepwise RH increase
Procedure: Water sorption experiments are performed on a Dynamic Vapor Sorption (DVS) apparatus (DVS-1000 manufactured by Surface Measurements Systems, Inc.). Experiments are performed at 25° C. by initially drying the material of interest (about 10 mg sample) from 30% relative humidity (RH) (ambient room condition) to about 9% RH in a stepwise fashion (10% RH step) by purging with dry nitrogen until no further weight change was observed. The samples are then exposed to a stepwise (10% RH steps) increase in RH from about 0 to about 90% RH. Each successive step is initiated when the change in weight over time at the relative humidity was less than 0.0003% ((dm/dt)/m0×100, where m is mass in mg, m0 is initial mass, and t is time in minutes). The sample is then taken through the reverse of the stepwise % RH increase. The data are collected on a computer and analyzed using SMS' proprietary MS-Excel macro interface software.

Desorptoin % Weight Change (0.45 % RH at 25° C.): 0.057% | Sorption % Weight Change (0.45 % RH at 25° C.): 0.057% | Desorptoin % Weight Change (9.2 % RH at 25° C.): 0.997% | Sorption % Weight Change (9.2 % RH at 25° C.): 0.9575% | Desorptoin % Weight Change (20.05 % RH at 25° C.): 2.1025% | Sorption % Weight Change (20.05 % RH at 25° C.): 2.016% | Desorptoin % Weight Change (29.75 % RH at 25° C.): 3.599% | Sorption % Weight Change (29.75 % RH at 25° C.): 3.4105% | Desorptoin % Weight Change (39.4 % RH at 25° C.): 4.743% | Sorption % Weight Change (39.4 % RH at 25° C.): 4.282% | Desorptoin % Weight Change (49.55 % RH at 25° C.): 5.321% | Sorption % Weight Change (49.55 % RH at 25° C.): 4.928% | Desorptoin % Weight Change (59.4 % RH at 25° C.): 5.726% | Sorption % Weight Change (59.4 % RH at 25° C.): 5.356% | Desorptoin % Weight Change (69.05 % RH at 25° C.): 6.054% | Sorption % Weight Change (69.05 % RH at 25° C.): 5.706% | Desorptoin % Weight Change (78.8 % RH at 25° C.): 6.357% | Sorption % Weight Change (78.8 % RH at 25° C.): 6.109% | Desorptoin % Weight Change (88.5 % RH at 25° C.): 6.734% | Sorption % Weight Change (88.5 % RH at 25° C.): 6.734%
SMILES: CCCCC1(CCCC)CS(=O)(=O)c2ccc(N(C)C)cc2[C@@H](c2ccc(OCc3ccc(C[N+]45CCN(CC4)CC5)cc3)cc2)[C@H]1O.[Cl-] [Form I, (4R,5R)-1-((4-(4-(3,3-dibutyl-7-(dimethylamino)-2,3,4,5-tetrahydro-4-hydroxy-1,1-dioxido-1-benzithiepin-5-yl)phenoxy)methyl)phenyl)methyl-4-aza-1-azoniabicyclo[2.2.2]octane chloride]

Desorptoin % Weight Change (1.3 % RH at 25° C.): −0.02695% | Sorption % Weight Change (1.3 % RH at 25° C.): −0.02695% | Desorptoin % Weight Change (9.35 % RH at 25° C.): 0.04235% | Sorption % Weight Change (9.35 % RH at 25° C.): 0.04715% | Desorptoin % Weight Change (20.25 % RH at 25° C.): 0.09715% | Sorption % Weight Change (20.25 % RH at 25° C.): 0.1058% | Desorptoin % Weight Change (29.75 % RH at 25° C.): 0.1444% | Sorption % Weight Change (29.75 % RH at 25° C.): 0.1376% | Desorptoin % Weight Change (39.55 % RH at 25° C.): 0.1866% | Sorption % Weight Change (39.55 % RH at 25° C.): 0.1809% | Desorptoin % Weight Change (49.7 % RH at 25° C.): 0.2636% | Sorption % Weight Change (49.7 % RH at 25° C.): 0.2386% | Desorptoin % Weight Change (59.5 % RH at 25° C.): 0.331% | Sorption % Weight Change (59.5 % RH at 25° C.): 0.304% | Desorptoin % Weight Change (69.1 % RH at 25° C.): 0.3983% | Sorption % Weight Change (69.1 % RH at 25° C.): 0.3945% | Desorptoin % Weight Change (78.65 % RH at 25° C.): 0.4849% | Sorption % Weight Change (78.65 % RH at 25° C.): 0.4695% | Desorptoin % Weight Change (88.5 % RH at 25° C.): 0.6446% | Sorption % Weight Change (88.5 % RH at 25° C.): 0.6446% | weight gain of dry sample (of its own weight) when equilibrated under humid air (dry sample equilibrated under 80% relative humidity (RH) air at 25° C.): less than 1% | hygroscopicity (dry sample, 80% RH air at 25° C.): essentially nonhygroscopic
SMILES: CCCCC1(CCCC)CS(=O)(=O)c2ccc(N(C)C)cc2[C@@H](c2ccc(OCc3ccc(C[N+]45CCN(CC4)CC5)cc3)cc2)[C@H]1O.[Cl-] [Form II, (4R,5R)-1-((4-(4-(3,3-dibutyl-7-(dimethylamino)-2,3,4,5-tetrahydro-4-hydroxy-1,1-dioxido-1-benzithiepin-5-yl)phenoxy)methyl)phenyl)methyl-4-aza-1-azoniabicyclo[2.2.2]octane chloride]
